ChEMBL document CHEMBL1201862, “PubChem BioAssay data set” (2004)
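Assay format: 96-well plates, 48-hour exposure. GI50 is the concentration that inhibits growth by half.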 The source made the active and inactive calls. Rule as the data show it: active = GI50 up to about 1.1 µM and inactive = higher.

Tests used:
Test in all cases: NCI anticancer screen, dose series, 48 h
SR = test system: SR
MDA-N = test system: MDA-N
K562 = test system: K562
UACC-257 = test system: UACC-257
T47D = test system: T47D
ACHN = test system: ACHN
PC-3 = test system: PC-3
COLO 205 = test system: COLO 205
TK-10 = test system: TK-10
DU-145 = test system: DU-145
CCRF-CEM = test system: CCRF-CEM
EKVX = test system: EKVX
SK-MEL-5 = test system: SK-MEL-5
IGROV-1 = test system: IGROV-1
NCI-H460 = test system: NCI-H460
MDA-MB-231 = test system: MDA-MB-231
SK-MEL-2 = test system: SK-MEL-2
BT-549 = test system: BT-549
HCT-15 = test system: HCT-15
MOLT-4 = test system: MOLT-4

| SMILES | GI50 (SR) | GI50 (MDA-N) | GI50 (K562) | GI50 (UACC-257) | GI50 (T47D) | GI50 (ACHN) | GI50 (PC-3) | GI50 (COLO 205) | GI50 (TK-10) | GI50 (DU-145) | GI50 (CCRF-CEM) | GI50 (EKVX) | GI50 (SK-MEL-5) | GI50 (IGROV-1) | GI50 (NCI-H460) | GI50 (MDA-MB-231) | GI50 (SK-MEL-2) | GI50 (BT-549) | GI50 (HCT-15) [µM] | GI50 (MOLT-4) |
| --- | --- | --- | --- | --- | --- | --- | --- | --- | --- | --- | --- | --- | --- | --- | --- | --- | --- | --- | --- | --- |
| CSc1nc(=O)c2nc(-c3cccs3)c(-c3cccs3)nc2n1C | > 100 µM (inactive) | > 100 µM (inactive) | > 100 µM (inactive) | > 100 µM (inactive) | 18.7 µM (inactive) | 37.7 µM (inactive) | 40.9 µM (inactive) | > 100 µM (inactive) | > 100 µM (inactive) | 34.3 µM (inactive) | > 100 µM (inactive) | 27.6 µM (inactive) | > 100 µM (inactive) | 43.5 µM (inactive) | > 100 µM (inactive) | 97.7 µM (inactive) | 49.2 µM (inactive) | 34.5 µM (inactive) | > 100 | > 100 µM (inactive) |
| OC[C@H](O)[C@@H](OCc1ccccc1)[C@H](NCc1ccccc1)c1cccs1 | > 100 µM (inactive) | > 100 µM (inactive) | > 100 µM (inactive) | > 100 µM (inactive) | > 100 µM (inactive) | > 100 µM (inactive) | 98.4 µM (inactive) | > 100 µM (inactive) | > 100 µM (inactive) | > 100 µM (inactive) | > 100 µM (inactive) | > 100 µM (inactive) | > 100 µM (inactive) | 75.5 µM (inactive) | 85.7 µM (inactive) | > 100 µM (inactive) | > 100 µM (inactive) | > 100 µM (inactive) | > 100 | > 100 µM (inactive) |
| O=C1CCCC1CN1CCCC1 (stereo not given) | 0.194 µM (active) | 13.5 µM (inactive) | 0.251 µM (active) | 15.2 µM (inactive) | 2.75 µM (inactive) | 6.08 µM (inactive) | 18.9 µM (inactive) | 3.78 µM (inactive) | 12.5 µM (inactive) | 30.5 µM (inactive) | 0.207 µM (active) | 18.1 µM (inactive) | 18 µM (inactive) | 10.6 µM (inactive) | 42.4 µM (inactive) | 15.5 µM (inactive) | 7.14 µM (inactive) | 1.56 µM (inactive) | 2 | 0.206 µM (active) |
| CC(C)Nc1[nH]c(C(=O)c2ccccc2)c(N)c1C(=S)Nc1ccccc1 | 43.5 µM (inactive) | 40.4 µM (inactive) | 60.8 µM (inactive) | 22.9 µM (inactive) | 69.8 µM (inactive) | 63.1 µM (inactive) | > 100 µM (inactive) | 28.1 µM (inactive) | 57.1 µM (inactive) | > 100 µM (inactive) | > 100 µM (inactive) | > 100 µM (inactive) | 28.9 µM (inactive) | > 100 µM (inactive) | 57 µM (inactive) | 28.5 µM (inactive) | 23.8 µM (inactive) | > 100 µM (inactive) | 32.8 | 80.9 µM (inactive) |
| CCOC(=O)C1(CC(=O)O)CCCC1=O (stereo not given) | > 100 µM (inactive) | > 100 µM (inactive) | > 100 µM (inactive) | > 100 µM (inactive) | > 100 µM (inactive) | > 100 µM (inactive) | > 100 µM (inactive) | > 100 µM (inactive) | > 100 µM (inactive) | > 100 µM (inactive) | > 100 µM (inactive) | > 100 µM (inactive) | > 100 µM (inactive) | > 100 µM (inactive) | > 100 µM (inactive) | > 100 µM (inactive) | > 100 µM (inactive) | > 100 µM (inactive) | > 100 | 0.475 µM (active) |
| COC12C=CC(CC1)C(C)(C)C2OS(C)(=O)=O (stereo not given) | > 100 µM (inactive) | > 100 µM (inactive) | > 100 µM (inactive) | > 100 µM (inactive) | > 100 µM (inactive) | > 100 µM (inactive) | > 100 µM (inactive) | > 100 µM (inactive) | > 100 µM (inactive) | > 100 µM (inactive) | > 100 µM (inactive) | > 100 µM (inactive) | > 100 µM (inactive) | > 100 µM (inactive) | > 100 µM (inactive) | > 100 µM (inactive) | > 100 µM (inactive) | > 100 µM (inactive) | > 100 | > 100 µM (inactive) |
| O=C(c1ccccc1)c1cc[n+](C2=C([N-]S(=O)(=O)c3ccccc3)C(=O)c3ccccc3C2=O)cc1 | 3.08 µM (inactive) | 1.86 µM (inactive) | 2.65 µM (inactive) | 11.6 µM (inactive) | 3.33 µM (inactive) | 12.7 µM (inactive) | 11.1 µM (inactive) | 13.7 µM (inactive) | 18.3 µM (inactive) | 13.9 µM (inactive) | 2.1 µM (inactive) | 14 µM (inactive) | 2.01 µM (inactive) | 9.35 µM (inactive) | 13.5 µM (inactive) | 12.9 µM (inactive) | 3 µM (inactive) | 6.76 µM (inactive) | 14.4 | 3.05 µM (inactive) |
| COC(C)(C)/C=C/c1[nH]c2ccccc2c1CC(=O)NCCc1cn(C(c2ccccc2)(c2ccccc2)c2ccccc2)cn1 | 2.23 µM (inactive) | 4.33 µM (inactive) | 3.17 µM (inactive) | 4.02 µM (inactive) | 2.71 µM (inactive) | 4.53 µM (inactive) | 3.44 µM (inactive) | 2.02 µM (inactive) | 5.46 µM (inactive) | > 31.6 µM (inactive) | 3.68 µM (inactive) | 3.44 µM (inactive) | 2.92 µM (inactive) | 5.4 µM (inactive) | 2.62 µM (inactive) | 4.72 µM (inactive) | 2.64 µM (inactive) | 7.87 µM (inactive) | 4.25 | 2.36 µM (inactive) |
| CN(c1ccccc1Cl)S(=O)(=O)c1ccc([N+](=O)[O-])cc1 | > 100 µM (inactive) | > 100 µM (inactive) | > 100 µM (inactive) | > 100 µM (inactive) | > 100 µM (inactive) | > 100 µM (inactive) | > 100 µM (inactive) | > 100 µM (inactive) | > 100 µM (inactive) | > 100 µM (inactive) | > 100 µM (inactive) | > 100 µM (inactive) | > 100 µM (inactive) | > 100 µM (inactive) | > 100 µM (inactive) | > 100 µM (inactive) | > 100 µM (inactive) | > 100 µM (inactive) | > 100 | > 100 µM (inactive) |
| CC(C)(CN1CCCCC1)C(=O)/C=C/c1ccc(/C=C/C(=O)C(C)(C)CN2CCCCC2)cc1 | 0.103 µM (active) | 0.177 µM (active) | 0.103 µM (active) | 1.05 µM (active) | 0.525 µM (active) | 0.264 µM (active) | 0.273 µM (active) | 0.152 µM (active) | 1.05 µM (active) | 1.94 µM (inactive) | 0.0466 µM (active) | 1.71 µM (inactive) | 1.04 µM (active) | 0.505 µM (active) | 0.684 µM (active) | 0.196 µM (active) | 1.25 µM (inactive) | 1.7 µM (inactive) | 0.204 | 0.11 µM (active) |
